Blank lines part the entries; values can stand above or below the compound they belong to.
Assays:
Format in all cases: in vivo
[1] = tested on: Pharbitis purpurea; assay: Herbicidal action post-emergence (greenhouse pot trial)
How it was run: (§1)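 Percent herbicidal efficacy, assessed by eye about 3 weeks after spraying, compares treated with untreated plants. Treatment is a post-emergence spray at the one-leaf stage, using a WP or EC preparation plus 0.5% additive in 600 L/ha of water, at 80 g/ha or lower.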

[2] = tested on: Polygonum convolvulus; assay: as above; conditions: scored visually after about 3 weeks vs untreated controls
How it was run: as §1

[3] = tested on: Stellaria media; assay: as above; conditions: scored visually after about 3 weeks vs untreated controls
How it was run: as §1

[4] = tested on: Digitaria sanguinalis; assay: as above
How it was run: as §1

[5] = tested on: Setaria viridis; assay: as above; conditions: scored visually after about 3 weeks vs untreated controls
How it was run: as §1

[6] = tested on: Alopecurus myosuroides; assay: as above; conditions: scored visually after about 3 weeks vs untreated controls
How it was run: as §1

[7] = tested on: Viola tricolor; assay: as above
How it was run: as §1

[8] = tested on: Avena fatua; assay: as above; conditions: scored visually after about 3 weeks vs untreated controls
How it was run: as §1

[9] = tested on: Matricaria inodora; assay: as above; conditions: scored visually after about 3 weeks vs untreated controls
How it was run: as §1

[10] = tested on: Abutilon theophrasti; assay: as above; conditions: scored visually after about 3 weeks vs untreated controls
How it was run: as §1

[11] = tested on: Amaranthus retroflexus; assay: as above; conditions: scored visually after about 3 weeks vs untreated controls
How it was run: as §1

[12] = tested on: Veronica persica; assay: as above
How it was run: as §1

[13] = tested on: Hordeum murinum; assay: as above; conditions: scored visually after about 3 weeks vs untreated controls
How it was run: as §1

[14] = tested on: Oryza sativa; assay: Crop compatibility post-emergence (greenhouse pot trial); conditions: application rate 5 g/ha
How it was run: (§2)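 Visual % rating about 3 weeks post-treatment against untreated plants (100% dead, 0% unaffected). Post-emergence spray of aqueous WP/EC preparations with 0.5% additive at 600 L/ha water, applied at one-leaf stage to greenhouse pot-grown crops in sandy loam.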

[15] = tested on: Zea mays; assay: as above; conditions: application rate 5 g/ha
How it was run: as §2

[16] = tested on: Pharbitis purpurea; assay: Herbicidal action pre-emergence (greenhouse pot trial); conditions: application rate 320 g/ha
How it was run: (§3)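 Pots containing sown seeds beneath a soil layer were sprayed with the test formulations at an application rate of 320 g/ha or lower. Percent efficacy was assigned by eye about three weeks afterwards, with dead plants scored as 100%.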

[17] = tested on: Stellaria media; assay: as above; conditions: application rate 320 g/ha, scored after about 3 weeks
How it was run: as §3

[18] = tested on: Digitaria sanguinalis; assay: as above; conditions: application rate 80 g/ha
How it was run: as §3

[19] = tested on: Setaria viridis; assay: as above; conditions: application rate 320 g/ha, scored after about 3 weeks
How it was run: as §3

[20] = tested on: Echinochloa crus-galli; assay: as above; conditions: application rate 320 g/ha, scored after about 3 weeks
How it was run: as §3

[21] = tested on: Alopecurus myosuroides; assay: as above; conditions: application rate 320 g/ha, scored after about 3 weeks
How it was run: as §3

[22] = tested on: Viola tricolor; assay: as above; conditions: application rate 320 g/ha, scored after about 3 weeks
How it was run: as §3

[23] = tested on: Avena fatua; assay: as above; conditions: application rate 320 g/ha
How it was run: as §3

[24] = tested on: Matricaria inodora; assay: as above; conditions: application rate 320 g/ha, scored after about 3 weeks
How it was run: as §3

[25] = tested on: Abutilon theophrasti; assay: as above; conditions: application rate 320 g/ha, scored after about 3 weeks
How it was run: as §3

[26] = tested on: Amaranthus retroflexus; assay: as above; conditions: application rate 320 g/ha, scored after about 3 weeks
How it was run: as §3

[27] = tested on: Veronica persica; assay: as above; conditions: application rate 320 g/ha
How it was run: as §3

[28] = tested on: Hordeum murinum; assay: as above; conditions: application rate 320 g/ha
How it was run: as §3

[29] = tested on: Lolium rigidum; assay: as above; conditions: application rate 320 g/ha
How it was run: as §3

[30] = tested on: Echinochloa crus-galli; assay: Herbicidal action post-emergence (greenhouse pot trial); conditions: scored visually after about 3 weeks vs untreated controls
How it was run: as §1

[31] = tested on: Lolium rigidum; assay: as above; conditions: scored visually after about 3 weeks vs untreated controls
How it was run: as §1

[32] = tested on: Glycine max; assay: Crop compatibility pre-emergence (greenhouse pot trial); conditions: application rate 20 g/ha, effect vs untreated controls
How it was run: (§4)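 After soil-surface application of each compound to freshly sown pots (aqueous spray, 600 L/ha, 0.5% additive), plants grew under greenhouse conditions. Around 3 weeks later, injury was estimated visually on a 0–100% scale against controls.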

[33] = tested on: Zea mays; assay: as above; conditions: application rate 80 g/ha, effect vs untreated controls
How it was run: as §4

[34] = tested on: Triticum aestivum; assay: Crop compatibility post-emergence (greenhouse pot trial); conditions: application rate 80 g/ha
How it was run: as §2

Oryza sativa (Efficacy in %) [14]: 0% | Zea mays (Efficacy in %) [15]: 20%
Compound: CC(Sc1cc(-n2c(=O)cc(C(F)(F)F)n(C)c2=O)c(F)cc1Cl)C(=O)OC1COC1 (stereo not shown) [I.1-115]
Pharbitis purpurea (Efficacy in %) ([1]; application rate 20 g/ha): 100% | Polygonum convolvulus (Efficacy in %) ([2]; application rate 20 g/ha): 100% | Stellaria media (Efficacy in %) ([3]; application rate 20 g/ha): 100% | Digitaria sanguinalis (Efficacy in %) ([4]; application rate 20 g/ha): 100% | Setaria viridis (Efficacy in %) ([5]; application rate 20 g/ha): 100% | Alopecurus myosuroides (Efficacy in %) ([6]; application rate 20 g/ha): 80% | Viola tricolor (Efficacy in %) ([7]; application rate 20 g/ha): 100% | Avena fatua (Efficacy in %) ([8]; application rate 20 g/ha): 80% | Matricaria inodora (Efficacy in %) ([9]; application rate 20 g/ha): 100% | Abutilon theophrasti (Efficacy in %) ([10]; application rate 20 g/ha): 100% | Amaranthus retroflexus (Efficacy in %) ([11]; application rate 20 g/ha): 100% | Veronica persica (Efficacy in %) ([12]; application rate 20 g/ha): 100% | Hordeum murinum (Efficacy in %) ([13]; application rate 20 g/ha): 100%

Glycine max (Efficacy in %) [32]: 20% | Zea mays (Efficacy in %) [33]: 10% | Oryza sativa (Efficacy in %) [14]: 20% | Triticum aestivum (Efficacy in %) [34]: 20%
Compound: CCC(Sc1cc(-n2c(=O)cc(C(F)(F)F)n(C)c2=O)c(F)cc1Cl)C(=O)OCC1CCOC1 (stereo not shown) [I.2-72, Tetrahydrofuran-3-ylmethyl 2-({2-chloro-4-fluoro-5-[3-methyl-2,6-dioxo-4-(trifluoromethyl)-3,6-dihydropyrimidin-1(2H)-yl]phenyl}sulfanyl)butanoate]
Pharbitis purpurea (Efficacy in %) [16]: 100% | Stellaria media (Efficacy in %) [17]: 100% | Digitaria sanguinalis (Efficacy in %) [18]: 100% | Setaria viridis (Efficacy in %) [19]: 100% | Echinochloa crus-galli (Efficacy in %) [20]: 100% | Alopecurus myosuroides (Efficacy in %) [21]: 100% | Viola tricolor (Efficacy in %) [22]: 100% | Avena fatua (Efficacy in %) [23]: 80% | Matricaria inodora (Efficacy in %) [24]: 100% | Abutilon theophrasti (Efficacy in %) [25]: 100% | Amaranthus retroflexus (Efficacy in %) [26]: 100% | Veronica persica (Efficacy in %) [27]: 100% | Hordeum murinum (Efficacy in %) [28]: 90% | Lolium rigidum (Efficacy in %) [29]: 90% | Pharbitis purpurea (Efficacy in %) ([1]; application rate 80 g/ha): 100% | Polygonum convolvulus (Efficacy in %) ([2]; application rate 80 g/ha): 100% | Stellaria media (Efficacy in %) ([3]; application rate 80 g/ha): 100% | Digitaria sanguinalis (Efficacy in %) ([4]; application rate 80 g/ha): 100% | Setaria viridis (Efficacy in %) ([5]; application rate 80 g/ha): 100% | Echinochloa crus-galli (Efficacy in %) ([30]; application rate 80 g/ha): 100% | Alopecurus myosuroides (Efficacy in %) ([6]; application rate 80 g/ha): 90% | Viola tricolor (Efficacy in %) ([7]; application rate 80 g/ha): 100% | Avena fatua (Efficacy in %) ([8]; application rate 80 g/ha): 80% | Matricaria inodora (Efficacy in %) ([9]; application rate 80 g/ha): 100% | Abutilon theophrasti (Efficacy in %) ([10]; application rate 80 g/ha): 100% | Amaranthus retroflexus (Efficacy in %) ([11]; application rate 80 g/ha): 100% | Veronica persica (Efficacy in %) ([12]; application rate 80 g/ha): 100% | Hordeum murinum (Efficacy in %) ([13]; application rate 80 g/ha): 80% | Lolium rigidum (Efficacy in %) ([31]; application rate 80 g/ha): 80%

Compound: CC(Sc1cc(-n2c(=O)cc(C(F)(F)F)n(C)c2=O)c(F)cc1Cl)C(=O)OC1CCOC1 (stereo not shown) [I.1-121]
Pharbitis purpurea (Efficacy in %) ([1]; application rate 20 g/ha): 100% | Polygonum convolvulus (Efficacy in %) ([2]; application rate 20 g/ha): 100% | Stellaria media (Efficacy in %) ([3]; application rate 20 g/ha): 100% | Digitaria sanguinalis (Efficacy in %) ([4]; application rate 20 g/ha): 100% | Setaria viridis (Efficacy in %) ([5]; application rate 20 g/ha): 100% | Echinochloa crus-galli (Efficacy in %) ([30]; application rate 20 g/ha): 100% | Avena fatua (Efficacy in %) ([8]; application rate 20 g/ha): 80% | Matricaria inodora (Efficacy in %) ([9]; application rate 20 g/ha): 100% | Abutilon theophrasti (Efficacy in %) ([10]; application rate 20 g/ha): 100% | Amaranthus retroflexus (Efficacy in %) ([11]; application rate 20 g/ha): 100% | Veronica persica (Efficacy in %) ([12]; application rate 20 g/ha): 100% | Hordeum murinum (Efficacy in %) ([13]; application rate 20 g/ha): 80% | Lolium rigidum (Efficacy in %) ([31]; application rate 20 g/ha): 80%

From patent publication US11497212B2, “Substituted thiophenyl uracils, salts thereof and the use thereof as herbicidal agents” (Syngenta Crop Protection AG, priority 2017, dated 2022)
